Calls of active or inactive are those of the source.
Assays:
Large T antigen = Large T antigen (Simian virus 40, UniProt P03070); assay type: functional, Betapolyomavirus macacae;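 also: Confirmatory-stage PubChem screen for compounds that inhibit SV40 T antigen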
Fatty acid synthase [1] = target: T1, Fatty acid synthase (Homo sapiens, UniProt P49327); experiment: FAS thioesterase domain inhibitors, dose response, biochemical, endpoint fluorescence intensity, uHTS hits (AID 624327); assay type: functional;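 also: fluorescence from hydrolysis of an O-methyl fluorescein acyl ester substrate by the enzyme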
T1 sequence (P49327 whole entry, the tested form may be a part): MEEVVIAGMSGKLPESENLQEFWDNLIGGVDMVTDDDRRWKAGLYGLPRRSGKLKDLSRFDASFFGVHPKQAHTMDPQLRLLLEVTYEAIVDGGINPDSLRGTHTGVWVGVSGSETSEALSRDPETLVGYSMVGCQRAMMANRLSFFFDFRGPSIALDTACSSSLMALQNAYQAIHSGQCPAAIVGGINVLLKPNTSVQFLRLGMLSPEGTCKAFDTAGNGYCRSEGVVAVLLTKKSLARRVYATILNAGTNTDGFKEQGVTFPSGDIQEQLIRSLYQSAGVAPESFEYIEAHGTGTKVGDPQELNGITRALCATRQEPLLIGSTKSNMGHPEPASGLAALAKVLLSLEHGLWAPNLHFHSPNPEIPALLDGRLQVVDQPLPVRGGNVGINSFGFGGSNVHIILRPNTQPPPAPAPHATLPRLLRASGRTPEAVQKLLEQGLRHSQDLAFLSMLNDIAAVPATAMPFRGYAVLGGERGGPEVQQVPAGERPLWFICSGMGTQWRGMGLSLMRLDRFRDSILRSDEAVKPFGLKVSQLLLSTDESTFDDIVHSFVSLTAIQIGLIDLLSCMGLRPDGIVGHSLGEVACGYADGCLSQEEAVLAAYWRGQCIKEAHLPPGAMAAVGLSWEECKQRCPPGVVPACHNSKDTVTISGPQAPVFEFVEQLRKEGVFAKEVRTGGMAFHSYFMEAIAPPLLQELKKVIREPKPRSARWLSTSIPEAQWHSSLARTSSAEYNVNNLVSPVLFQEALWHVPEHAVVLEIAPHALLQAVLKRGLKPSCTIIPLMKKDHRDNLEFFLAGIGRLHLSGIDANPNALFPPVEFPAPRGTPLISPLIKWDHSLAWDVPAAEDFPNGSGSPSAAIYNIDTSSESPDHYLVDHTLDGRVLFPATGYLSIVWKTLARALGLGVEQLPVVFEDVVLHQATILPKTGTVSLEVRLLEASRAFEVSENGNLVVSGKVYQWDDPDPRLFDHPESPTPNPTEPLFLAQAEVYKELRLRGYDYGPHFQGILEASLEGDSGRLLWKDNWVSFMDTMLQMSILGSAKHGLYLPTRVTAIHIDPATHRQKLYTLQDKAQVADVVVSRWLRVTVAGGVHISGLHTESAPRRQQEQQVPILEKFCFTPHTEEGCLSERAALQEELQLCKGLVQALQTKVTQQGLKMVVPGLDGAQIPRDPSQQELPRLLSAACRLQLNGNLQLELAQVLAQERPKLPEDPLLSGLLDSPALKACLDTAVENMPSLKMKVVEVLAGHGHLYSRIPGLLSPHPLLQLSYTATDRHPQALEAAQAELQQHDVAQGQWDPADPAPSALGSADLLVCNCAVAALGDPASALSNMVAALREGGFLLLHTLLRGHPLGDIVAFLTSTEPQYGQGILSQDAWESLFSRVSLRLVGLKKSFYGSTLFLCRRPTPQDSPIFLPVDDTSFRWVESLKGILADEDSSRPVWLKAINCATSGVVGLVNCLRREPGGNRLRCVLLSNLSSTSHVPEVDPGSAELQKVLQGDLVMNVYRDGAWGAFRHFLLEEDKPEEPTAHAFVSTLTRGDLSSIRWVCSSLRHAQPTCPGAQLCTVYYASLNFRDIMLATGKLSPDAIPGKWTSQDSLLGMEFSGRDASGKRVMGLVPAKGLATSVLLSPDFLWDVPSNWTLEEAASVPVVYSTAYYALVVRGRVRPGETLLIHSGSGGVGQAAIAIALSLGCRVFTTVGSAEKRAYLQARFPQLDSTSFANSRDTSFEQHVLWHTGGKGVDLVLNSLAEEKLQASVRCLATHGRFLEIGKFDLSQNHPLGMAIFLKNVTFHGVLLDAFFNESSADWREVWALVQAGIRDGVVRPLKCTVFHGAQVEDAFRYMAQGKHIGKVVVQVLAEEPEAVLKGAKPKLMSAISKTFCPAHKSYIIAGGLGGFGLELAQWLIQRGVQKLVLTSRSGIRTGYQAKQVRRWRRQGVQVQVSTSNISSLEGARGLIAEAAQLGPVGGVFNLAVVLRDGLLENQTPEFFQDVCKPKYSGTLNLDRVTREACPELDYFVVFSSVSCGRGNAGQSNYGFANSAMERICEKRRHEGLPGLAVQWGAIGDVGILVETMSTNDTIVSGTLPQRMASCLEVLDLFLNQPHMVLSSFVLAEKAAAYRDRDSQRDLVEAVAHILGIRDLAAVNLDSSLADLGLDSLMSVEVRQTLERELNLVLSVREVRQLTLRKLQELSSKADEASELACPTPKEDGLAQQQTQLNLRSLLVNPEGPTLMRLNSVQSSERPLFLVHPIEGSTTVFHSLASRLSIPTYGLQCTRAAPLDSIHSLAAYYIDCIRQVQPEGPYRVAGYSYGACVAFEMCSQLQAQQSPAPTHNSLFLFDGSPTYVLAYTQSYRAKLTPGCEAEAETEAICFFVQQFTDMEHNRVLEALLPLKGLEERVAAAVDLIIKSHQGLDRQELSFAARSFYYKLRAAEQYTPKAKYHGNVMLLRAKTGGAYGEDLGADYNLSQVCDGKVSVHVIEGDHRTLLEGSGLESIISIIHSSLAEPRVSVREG

Fatty acid synthase [2] = target: T1, Fatty acid synthase; experiment: FAS thioesterase domain inhibitors, dose response, biochemical, kinetic fluorescence intensity (AID 624326); assay type: functional;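 also: rate of fluorescence rise from hydrolysis of a fluorogenic O-methyl fluorescein ester substrate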
[3] = target: T2, Zinc finger protein mex-5 (Caenorhabditis elegans, UniProt Q9XUB2); experiment: MEX-5/TCR-2 RNA interaction inhibitors, dose response, biochemical, C. elegans, fluorescence polarization (AID 1960)
T2 sequence (Q9XUB2 whole entry): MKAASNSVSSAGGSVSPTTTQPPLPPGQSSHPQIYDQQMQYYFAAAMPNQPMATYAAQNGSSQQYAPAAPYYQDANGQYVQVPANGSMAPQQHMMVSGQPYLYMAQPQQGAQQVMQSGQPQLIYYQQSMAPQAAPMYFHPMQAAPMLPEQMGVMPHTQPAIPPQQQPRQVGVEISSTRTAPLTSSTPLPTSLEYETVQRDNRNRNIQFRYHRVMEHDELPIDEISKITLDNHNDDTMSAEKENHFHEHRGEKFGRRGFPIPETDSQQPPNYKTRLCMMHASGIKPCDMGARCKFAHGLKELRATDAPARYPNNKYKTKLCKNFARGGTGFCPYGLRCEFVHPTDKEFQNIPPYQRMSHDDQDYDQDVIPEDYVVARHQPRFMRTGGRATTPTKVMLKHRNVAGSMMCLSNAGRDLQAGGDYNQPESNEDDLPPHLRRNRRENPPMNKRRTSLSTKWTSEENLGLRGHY

[4] = target: T3, RNA-binding protein pos-1 (Caenorhabditis elegans, UniProt G5EF15); experiment: inhibitors of POS-1/mex-3 RNA binding, dose response, biochemical, fluorescence polarization (AID 1964);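 also: purified POS-1 fused to maltose binding protein made in E. coli; potency of compounds blocking POS-1 binding to fluorescent RNA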
T3 sequence (G5EF15 whole entry): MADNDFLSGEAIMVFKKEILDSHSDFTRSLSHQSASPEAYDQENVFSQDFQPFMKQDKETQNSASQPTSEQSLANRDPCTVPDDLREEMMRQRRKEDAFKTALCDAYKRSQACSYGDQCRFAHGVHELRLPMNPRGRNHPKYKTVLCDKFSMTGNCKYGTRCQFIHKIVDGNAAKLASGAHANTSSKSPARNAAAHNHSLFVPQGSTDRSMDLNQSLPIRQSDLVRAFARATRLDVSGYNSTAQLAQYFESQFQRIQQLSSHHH

Cytochrome P450 2D6 = Cytochrome P450 2D6 (Homo sapiens, UniProt P10635);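 also: CYP2D6 member of a cytochrome P450 panel assay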
Sequence of Cytochrome P450 2D6 (P10635 whole entry): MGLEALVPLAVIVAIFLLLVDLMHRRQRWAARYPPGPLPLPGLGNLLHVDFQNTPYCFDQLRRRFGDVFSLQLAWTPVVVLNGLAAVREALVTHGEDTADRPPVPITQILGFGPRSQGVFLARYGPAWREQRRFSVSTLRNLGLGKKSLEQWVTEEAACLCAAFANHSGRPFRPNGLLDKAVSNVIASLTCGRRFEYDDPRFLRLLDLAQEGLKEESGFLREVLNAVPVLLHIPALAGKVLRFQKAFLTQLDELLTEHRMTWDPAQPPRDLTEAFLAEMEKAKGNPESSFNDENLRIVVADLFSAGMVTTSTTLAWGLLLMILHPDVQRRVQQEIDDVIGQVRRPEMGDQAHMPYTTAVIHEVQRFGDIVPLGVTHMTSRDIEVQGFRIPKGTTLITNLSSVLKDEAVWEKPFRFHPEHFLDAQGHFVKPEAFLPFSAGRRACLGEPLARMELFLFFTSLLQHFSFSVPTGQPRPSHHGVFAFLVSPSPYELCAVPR

Cytochrome P450 2C9 = Cytochrome P450 2C9 (Homo sapiens, UniProt P11712)
Cytochrome P450 3A4 = Cytochrome P450 3A4 (Homo sapiens, UniProt P08684);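 also: CYP3A4 tested as one member of a cytochrome P450 panel screen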
Sequence of Cytochrome P450 3A4 (P08684 whole entry): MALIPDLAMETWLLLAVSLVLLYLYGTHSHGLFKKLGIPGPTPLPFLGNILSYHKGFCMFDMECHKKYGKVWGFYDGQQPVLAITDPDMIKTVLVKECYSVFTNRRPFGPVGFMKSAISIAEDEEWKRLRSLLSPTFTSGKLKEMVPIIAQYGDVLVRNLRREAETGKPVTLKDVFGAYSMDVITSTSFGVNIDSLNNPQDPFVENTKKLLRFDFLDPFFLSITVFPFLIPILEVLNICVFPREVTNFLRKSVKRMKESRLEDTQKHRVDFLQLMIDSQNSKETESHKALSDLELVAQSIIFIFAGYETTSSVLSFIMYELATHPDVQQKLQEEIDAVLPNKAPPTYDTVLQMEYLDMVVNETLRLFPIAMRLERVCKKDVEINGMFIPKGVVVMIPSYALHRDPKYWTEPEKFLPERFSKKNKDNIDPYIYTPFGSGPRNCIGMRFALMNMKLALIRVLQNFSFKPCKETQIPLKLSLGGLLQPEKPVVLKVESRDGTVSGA

Cytochrome P450 2C19 = Cytochrome P450 2C19 (Homo sapiens, UniProt P33261); experiment: Cytochrome panel assay with activity outcomes. Panel member name: p450-cyp2c19 Compounds with AC50 equal or less than 10 uM are considered active; assay type: functional; details: read-out: AC50
Sequence of Cytochrome P450 2C19 (P33261 whole entry): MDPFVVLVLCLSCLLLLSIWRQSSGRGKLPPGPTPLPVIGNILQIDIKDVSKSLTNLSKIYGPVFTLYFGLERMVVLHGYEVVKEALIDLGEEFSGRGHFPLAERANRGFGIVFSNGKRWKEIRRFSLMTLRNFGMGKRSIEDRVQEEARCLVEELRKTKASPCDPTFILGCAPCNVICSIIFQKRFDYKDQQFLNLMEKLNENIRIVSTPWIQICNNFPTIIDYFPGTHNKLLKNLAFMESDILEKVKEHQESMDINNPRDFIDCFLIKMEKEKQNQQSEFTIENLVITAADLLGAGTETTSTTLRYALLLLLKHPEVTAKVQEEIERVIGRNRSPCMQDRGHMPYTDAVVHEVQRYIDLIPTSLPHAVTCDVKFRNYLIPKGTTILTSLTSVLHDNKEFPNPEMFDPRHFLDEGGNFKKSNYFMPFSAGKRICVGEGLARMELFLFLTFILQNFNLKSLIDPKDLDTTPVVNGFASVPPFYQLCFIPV

[5] = target: T4, Corticotropin-releasing factor receptor 2/Corticotropin-releasing factor-binding protein (Homo sapiens, UniProt P24387+Q13324); experiment: activators of CRF receptor 2 with binding protein – uHTS hits, confirmation (AID 602473); assay type: functional; details: read-out: EC50_Mean
T4 sequence (Q13324 whole entry): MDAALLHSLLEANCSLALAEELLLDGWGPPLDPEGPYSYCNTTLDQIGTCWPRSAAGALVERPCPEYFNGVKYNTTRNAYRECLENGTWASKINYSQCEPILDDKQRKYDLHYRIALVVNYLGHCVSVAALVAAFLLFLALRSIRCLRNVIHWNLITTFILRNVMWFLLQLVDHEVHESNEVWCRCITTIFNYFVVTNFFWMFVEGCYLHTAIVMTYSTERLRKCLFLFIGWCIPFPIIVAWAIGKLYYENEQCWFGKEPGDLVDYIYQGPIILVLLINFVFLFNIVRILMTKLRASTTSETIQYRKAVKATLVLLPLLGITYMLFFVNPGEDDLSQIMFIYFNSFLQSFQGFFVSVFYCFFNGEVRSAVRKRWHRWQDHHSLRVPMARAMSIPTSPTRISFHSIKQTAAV
T4 sequence (P24387 whole entry): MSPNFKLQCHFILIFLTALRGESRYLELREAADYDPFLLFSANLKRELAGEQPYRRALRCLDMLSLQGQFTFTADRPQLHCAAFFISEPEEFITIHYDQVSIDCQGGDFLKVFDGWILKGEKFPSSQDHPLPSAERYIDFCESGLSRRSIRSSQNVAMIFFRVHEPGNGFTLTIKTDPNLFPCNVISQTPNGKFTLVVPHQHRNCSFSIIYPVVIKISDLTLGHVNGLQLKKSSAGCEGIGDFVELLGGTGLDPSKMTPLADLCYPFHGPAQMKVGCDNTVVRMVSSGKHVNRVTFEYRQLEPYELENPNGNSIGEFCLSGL

[6] = target: T5, Rac GTPase-activating protein 1 (Homo sapiens, UniProt Q9H0H5); experiment: MgcRacGAP GTPase-activating activity inhibitors, confirmation, biochemical, ADP Hunter fluorescence, primary and confirmatory (AID 624330); assay type: functional
T5 sequence (Q9H0H5 whole entry): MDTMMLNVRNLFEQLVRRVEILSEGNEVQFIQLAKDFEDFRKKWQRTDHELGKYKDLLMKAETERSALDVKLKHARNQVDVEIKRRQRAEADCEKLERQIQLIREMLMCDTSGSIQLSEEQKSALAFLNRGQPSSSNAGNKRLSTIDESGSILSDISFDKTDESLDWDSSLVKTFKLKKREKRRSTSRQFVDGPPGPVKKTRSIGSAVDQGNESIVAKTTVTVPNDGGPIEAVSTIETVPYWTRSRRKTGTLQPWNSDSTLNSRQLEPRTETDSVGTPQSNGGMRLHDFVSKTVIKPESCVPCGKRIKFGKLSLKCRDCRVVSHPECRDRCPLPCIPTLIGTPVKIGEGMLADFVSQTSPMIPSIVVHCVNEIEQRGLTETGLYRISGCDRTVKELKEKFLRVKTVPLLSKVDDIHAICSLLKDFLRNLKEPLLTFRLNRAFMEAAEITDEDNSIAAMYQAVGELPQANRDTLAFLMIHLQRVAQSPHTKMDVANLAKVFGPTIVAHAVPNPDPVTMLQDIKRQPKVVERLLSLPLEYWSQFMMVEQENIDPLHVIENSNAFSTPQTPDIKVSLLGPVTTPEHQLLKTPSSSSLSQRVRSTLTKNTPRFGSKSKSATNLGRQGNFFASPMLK

[7] = control 3'UTR Renilla luciferase suppression, dose response, counter-screen for Shn3 inhibitor project, cell-based, Clone20-Shn3RL, cherry-picked (AID 624133); assay type: functional
[8] = Shn3 3'UTR reporter inhibitors, dose response, cell-based, Clone20 osteoblasts, firefly luciferase, cherry-picked (AID 624132); assay type: functional;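 also: firefly luciferase luminescence from reporter carrying the Shn3 3'UTR in osteoblasts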

Sequence of Large T antigen (P03070 whole entry, the tested form may be a part): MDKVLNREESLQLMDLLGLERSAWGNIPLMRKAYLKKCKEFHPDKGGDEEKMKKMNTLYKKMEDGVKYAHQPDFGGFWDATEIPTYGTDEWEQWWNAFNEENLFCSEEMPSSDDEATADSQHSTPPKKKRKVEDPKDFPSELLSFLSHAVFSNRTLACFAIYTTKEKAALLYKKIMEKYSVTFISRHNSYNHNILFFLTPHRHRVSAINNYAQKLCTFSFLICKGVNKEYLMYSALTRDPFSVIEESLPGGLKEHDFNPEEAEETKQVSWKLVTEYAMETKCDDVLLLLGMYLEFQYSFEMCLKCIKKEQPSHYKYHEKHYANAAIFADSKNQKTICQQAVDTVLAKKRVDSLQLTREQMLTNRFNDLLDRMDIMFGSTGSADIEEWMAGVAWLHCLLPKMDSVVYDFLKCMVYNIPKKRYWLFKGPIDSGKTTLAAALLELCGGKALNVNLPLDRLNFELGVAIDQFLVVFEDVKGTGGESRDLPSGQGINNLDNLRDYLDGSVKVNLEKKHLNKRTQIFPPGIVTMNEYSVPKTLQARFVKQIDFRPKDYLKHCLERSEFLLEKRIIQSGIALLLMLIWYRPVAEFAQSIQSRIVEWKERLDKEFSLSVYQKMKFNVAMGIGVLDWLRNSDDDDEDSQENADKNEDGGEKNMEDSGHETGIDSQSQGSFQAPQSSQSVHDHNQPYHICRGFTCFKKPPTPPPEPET

COc1cc(/C=C2/C(C)=C(C#N)c3nc(N)c(C#N)c(C)c32)ccc1OCC(=O)O
IC50 (Large T antigen): 89.5 µM (active)

Fc1c(F)c(F)c(N/N=C/c2c[nH]c3ccccc23)c(F)c1F
IC50 (Fatty acid synthase [1]): 11.5 µM (active) | IC50 (Fatty acid synthase [2]): 12.4 µM (active)

COc1ccc([N+](=O)[O-])cc1NC(=O)c1ccc(N(Cc2ccccc2C)S(C)(=O)=O)cc1
IC50 (Fatty acid synthase [1]): 9.88 µM (active) | IC50 (Fatty acid synthase [2]): 6.91 µM (active)

CN1C(=O)/C(=C\c2ccc(N3CCCCC3)o2)C(=O)NC1=S
EC50 [3]: > 300 µM (not active) | EC50 [4]: > 300 µM (not active)

FC(F)(F)c1nc(N2CCCC2)ncc1-c1nnnn1-c1ccccc1
AC50 (Cytochrome P450 2D6): 12.6 µM (inconclusive)

O=C1CC(=O)N(Cc2ccco2)C(=S)N1
IC50 (Large T antigen): 55.5 µM (active)

Sc1nnc(COc2ccccc2)n1/N=C/C=C/c1ccco1
IC50 (Large T antigen): > 100 µM (active)

CCC(C)N1C(=O)/C(=C\NNc2nc3c(c(=O)n(C)c(=O)n3C)n2C)C(=O)NC1=S (stereo not given)
EC50 [3]: 38.6 µM (active) | EC50 [4]: > 300 µM (not active)

C=CCN(CC=C)C(=O)C(=O)c1cc(C)n(-c2ccc([N+](=O)[O-])cc2)c1C
AC50 (Cytochrome P450 2C9): 15.8 µM (inconclusive) | AC50 (Cytochrome P450 2D6): 3.98 µM (inconclusive)

CCOC(=O)CC(=O)CSc1n[nH]c2c3ccccc3nc-2n1
AC50 (Cytochrome P450 3A4): 2.51 µM (inconclusive) | AC50 (Cytochrome P450 2D6): 3.55 µM (inconclusive)

CCCCC(=O)NCCc1c(Cc2ccccc2)[nH]c2ccccc12
AC50 (Cytochrome P450 2C19): 20 µM (inconclusive) | AC50 (Cytochrome P450 2D6): 39.8 µM (inconclusive)

Cc1cc2c3c(c1C)C1(C(=O)N3C(C)(C)CC2C)C(C#N)=C(N)OC2=C1C(=O)CC(C)(C)C2 (stereo not given)
EC50 [3]: > 300 µM (not active) | EC50 [4]: > 300 µM (not active)

N#CC(C#N)=Cc1ccc(-c2ccccc2)o1
EC50 [3]: 22.5 µM (inconclusive) | EC50 [4]: 6.78 µM (inconclusive)

O=C(NCc1ccc2c(c1)OCO2)c1cc([N+](=O)[O-])ccc1N1CCCCC1
IC50 (Fatty acid synthase [1]): 10.5 µM (active) | IC50 (Fatty acid synthase [2]): 5.03 µM (active)

C#CCOC(=O)NC(/C=C/CCCC)c1ccccc1 (stereo not given)
AC50 (Cytochrome P450 2C19): 25.1 µM (inconclusive) | AC50 (Cytochrome P450 2D6): 20 µM (inconclusive)

COc1cc(OC)c(C2CC(=O)N3CN(c4ccccc4C)CSC3=C2C#N)cc1OC (stereo not given)
IC50 (Large T antigen): 54.8 µM (active)

CCN(CC)C(=O)C1=C(C)N(Cc2ccc(F)cc2)C(=O)C(CC(=O)NC(c2ccccc2)c2ccccc2)C1 (stereo not given)
IC50 (Fatty acid synthase [1]): 9.6 µM (active) | IC50 (Fatty acid synthase [2]): 7.98 µM (active)

Cc1cc(/C=C2\C(=O)NC(=O)N(Cc3ccco3)C2=O)c(C)n1-c1ccc(C(=O)O)cc1
EC50 [3]: > 300 µM (inconclusive)

CNc1ncnc2ccc(-c3cccc(NS(C)(=O)=O)c3)cc12
AC50 (Cytochrome P450 2C19): 20 µM (inconclusive) | AC50 (Cytochrome P450 2D6): 39.8 µM (inconclusive)

O=C(O)C(=O)/C(=C\c1cccc2ccccc12)c1ccc2ccccc2n1
EC50 [5]: 7.6 µM (active) | EC50 [3]: 34.2 µM (active) | EC50 [4]: 164 µM (active)

COc1cccc(C(=O)NC2CC3CCCC(C2)N3CC(=O)Nc2ccc(N(C)C)cc2)c1 (stereo not given)
IC50 (Large T antigen): 6.24 µM (active)

CCCSc1nnc2nc3c(nn12)c1ccccc1n3C
EC50 [3]: 76.6 µM (active) | EC50 [4]: > 300 µM (not active)

COc1cc(C=C2C(=O)NC(=O)NC2=O)ccc1O
IC50 (Large T antigen): 28 µM (active)

O=C(Cc1ccc(S(=O)(=O)N2CCOCC2)s1)N1CCN(S(=O)(=O)c2ccccc2[N+](=O)[O-])CC1
IC50 (Fatty acid synthase [1]): 0.241 µM (active) | IC50 (Fatty acid synthase [2]): 3.36 µM (active)

CC(C)(C)NS(=O)(=O)c1ccc(NC(=O)NC2CCCCC2)cc1
AC50 (Cytochrome P450 2C19): 25.1 µM (inconclusive) | AC50 (Cytochrome P450 2D6): 17.8 µM (inconclusive)

CCN1C(=O)[C@H]2[C@@H](c3ccc(C)cc3)N3C(=O)N(c4cccc(Cl)c4)C(=O)[C@@]3(Cc3ccc(Cl)cc3)[C@H]2C1=O
IC50 (Fatty acid synthase [1]): 12 µM (active) | IC50 (Fatty acid synthase [2]): 16.1 µM (active)

O=C(CSCc1c(Cl)cccc1Cl)NCC1CCCO1 (stereo not given)
EC50 [3]: > 300 µM (not active) | EC50 [4]: > 300 µM (not active)

COc1ccc(NC2CCCN(C(=O)CCCn3cncn3)C2)cc1 (stereo not given)
IC50 (Large T antigen): 52.6 µM (active)

Cc1c(N2CCCC2)cc2c(c1NC(=O)c1ccccc1Cl)C(C)(C)CC2(C)C
AC50 (Cytochrome P450 3A4): 0.631 µM (inconclusive) | AC50 (Cytochrome P450 2D6): 3.16 µM (inconclusive)

CC1CCCN(c2ccc(N)cc2C(N)=O)C1 (stereo not given)
IC50 (Large T antigen): 44.6 µM (active)

CCOc1cc(/C=N/Nc2ncnc(Cl)c2N)ccc1O
IC50 (Large T antigen): 6.12 µM (active) | IC50 [6]: 25.2 µM (active)

CCOC(=O)C1CCN(C(=O)c2ccc(OCC(=O)Nc3cccc(C(F)(F)F)c3)c(OC)c2)CC1
AC50 [7]: 4.69 µM (active) | AC50 [8]: 1.75 µM (active)

CCn1c(SCC(=O)Nc2ncc(C(F)(F)F)cc2Cl)nnc1-c1cccc(C)c1
IC50 (Fatty acid synthase [1]): 3.66 µM (active) | IC50 (Fatty acid synthase [2]): 3.94 µM (active)

CCOc1ccc(NC(=O)CN(c2ccc([N+](=O)[O-])cc2)S(=O)(=O)c2ccccc2)cc1
IC50 (Fatty acid synthase [1]): 10.5 µM (active) | IC50 (Fatty acid synthase [2]): 7.65 µM (active)

O=C(Nc1ccc(O)cc1)c1ccc2c(c1)C(=O)N(N1C(=O)c3ccccc3C1=O)C2=O
IC50 (Large T antigen): 21.4 µM (active)

Source: ChEMBL document CHEMBL1201862, “PubChem BioAssay data set” (2004)
